The text below walks through data of PubChem BioAssay (NCI).

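How tested: cells in 96-well plates exposed to compound for 48 hours at five concentrations. TGI: total growth inhibition.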 Bounds are passed on as bounds.

One test deals with SF-268 CNS. Briefly: inhibition of tumour cell growth, NCI panel, 48 h.
As to `COCc1nc(N)nc(N2N=C(C)CC2(C)C)n1`, the TGI was greater than 100 µM. The same measure, in the same setting: the same measure for `CC(C)(C)OC(=O)NC(Cc1ccccc1)OCc1ccccc1` (stereo unspecified): 36.2 µM. On the same count and under the same terms, the same measure for `CNC(=O)C1(N)c2ccccc2C=Cc2ccccc21`: greater than 100 µM; for `CCOC(=O)C1C(c2ccc3c(c2)OCO3)c2c([nH][nH]c2=O)CC1(C)O` (stereo unspecified): greater than 100 µM; for `O=C(NC1CCCCC1NC(c1ccccc1)(c1ccccc1)c1ccccc1)C(=O)NC1CCCCC1NC(c1ccccc1)(c1ccccc1)c1ccccc1` (stereo unspecified): greater than 100 µM. Still for that read-out and setting: the same measure for `O=C(c1ccccc1)c1ccc2nc(-c3c(Cl)c(Cl)c(Cl)c(Cl)c3C(=O)N/N=C/c3ccc(Cl)cc3)[nH]c2c1`: greater than 100 µM. `CC(=O)c1ccc2c(c1)CC1(C2)Cc2cc3c(cc2C1=O)CCC3` (stereo unspecified) gave a TGI of 88 µM. Still for that read-out and setting: the result for `CCc1nn(CN2CCOCC2)c(=S)n1/N=C/c1ccc(-c2ccc(Cl)cc2)o1` reads greater than 100 µM. Turning to `C/C(=N\Nc1ccc([N+](=O)[O-])cc1[N+](=O)[O-])c1sc(-n2nc(-c3ccccc3)cc2-c2ccccc2)nc1C`, the TGI was greater than 100 µM. Still for that read-out and setting: the same measure for `COc1cc(C2SCC(=O)N2c2cccc(Cl)c2)cc(OC)c1OC` (stereo unspecified): greater than 100 µM; for `CS(=O)(=O)OCC1CN(S(C)(=O)=O)c2cc(O)ccc21` (stereo unspecified): 13.5 µM; for `COC1/C=C/C(C)C(C(C)C(OC)C(C)CCC(=O)C(C)C(C/C=C/N(C)C=O)OC)OC(=O)C=CC2OC2(C)CC(OC)C(OC)C2=CC(=O)O[C@@H](C(C)C(OC)CC(OC)/C=C/C(C)C(O)C1)[C@H]2O` (stereo partly specified): 0.0186 µM. On the same count and under the same terms, the same measure for `C=C(Br)CNC(=O)Nc1ccc(Cl)c(Cl)c1`: 91.9 µM; for `O=c1[nH]cc(-c2c[nH]c3ccccc23)nc1-c1c[nH]c2ccccc12`: 27.9 µM; for `Nc1n[n+](CC(=O)c2ccccc2)c2sc(-c3ccccc3)nn12`: greater than 100 µM. On the same count and under the same terms, the same measure for `CCC(C=O)P1(=O)OC(C)(C)CN1C(C)(C)C` (stereo unspecified): greater than 100 µM.

`CC1CC(C)C(C#N)N(C)c2ccccc21` (stereo unspecified) came in with a TGI greater than 100 µM. On the same count and under the same terms, the same measure for `O=C(O)C12C3CCC(CC3)C1(C(=O)O)C1CCC2C1` (stereo unspecified): greater than 100 µM; for `NC(N)=NCCCC(NC(=O)c1cccc2c(=O)c3ccccc3[nH]c12)C(=O)O` (stereo unspecified): greater than 100 µM. The molecule `COC(=O)[C@@H]1CC(C(C[N+](=O)[O-])c2ccc(O[Si](C)(C)C(C)(C)C)cc2)C(=O)N1C(=O)OC(C)(C)C` (stereo partly specified) displayed a TGI greater than 100 µM.

As for `O=S1(=O)OCCOS(=O)(=O)C1(F)Br`, the TGI was greater than 100 µM. Same read-out and setting: the result for `COC(=O)[C@H](CCSC)NC(=O)N[C@H](C)c1ccccc1` reads greater than 100 µM; that for `C=CC[C@@H](N)C(=O)N(C)[C@@H](C)[C@@H](O)c1ccccc1`, greater than 100 µM; that for `N#Cc1sc2c(c1OC(=O)c1ccccc1)c(=O)n(-c1ccccc1)c(=S)n2-c1ccccc1`, greater than 100 µM. The molecule `Cc1cc(C)c(-n2[nH]c(=O)n(C)c2=O)c(C)c1` had a TGI greater than 100 µM.

As to `O=C(NC1=C(Cl)C(=O)c2ccccc2C1=O)c1ccc(F)cc1`, the TGI came to 38.9 µM. `CC1=NC(=Cc2cccc(Cl)c2)C(=O)N1n1c(-c2ccccc2)nc2ccccc2c1=O` returned a TGI greater than 100 µM. Regarding `CO/C(=N\N=C\c1ccc(OC)c(OC)c1)c1ccncc1`, the TGI is greater than 10 µM. The same measure, in the same setting: the result for `COc1cc2c(c(OC)c1)/C(=C/Sc1ccccc1)C(=O)N(C(C)(C)C)C2` reads 39 µM; that for `CCC(CCCN)Nc1cc(OC)cc2c(C)ccnc12` (stereo unspecified), 31.6 µM; that for `CC(C)(C)OC(=O)N/N=C(/N)Cc1ccc(Cl)cc1`, greater than 100 µM.

A further test concerns UACC-257 melanoma. Put plainly: inhibition of tumour cell growth, NCI panel, 48 h.
On to `COC(=O)[C@@H]1[C@H](OC(C)=O)CCC2[C@@]3(C[C@@H](c4ccoc4)O[C@@H]3OC)[C@H](C)CC[C@]21C(=O)OC` (stereo partly specified), for which the TGI was greater than 25 µM. Same read-out and setting: the result for `Cc1n[nH]c(=O)n1N1C(=O)CCCC1=O` reads greater than 100 µM. Same read-out and setting: the result for `CCN1CCC(C)OP1(=O)Cc1ccccc1` (stereo unspecified) reads greater than 100 µM; that for `COCc1nc(N)nc(N2N=C(C)CC2(C)C)n1`, greater than 100 µM; that for `CC(C)(C)OC(=O)NC(Cc1ccccc1)OCc1ccccc1` (stereo unspecified), greater than 10 µM.

For the molecule `CCOC(=O)C1C(c2ccc3c(c2)OCO3)c2c([nH][nH]c2=O)CC1(C)O` (stereo unspecified), the TGI was greater than 100 µM. Still for that read-out and setting: the result for `O=C(NC1CCCCC1NC(c1ccccc1)(c1ccccc1)c1ccccc1)C(=O)NC1CCCCC1NC(c1ccccc1)(c1ccccc1)c1ccccc1` (stereo unspecified) reads greater than 100 µM; that for `O=C(c1ccccc1)c1ccc2nc(-c3c(Cl)c(Cl)c(Cl)c(Cl)c3C(=O)N/N=C/c3ccc(Cl)cc3)[nH]c2c1`, greater than 100 µM. The same measure, in the same setting: the same measure for `CC(=O)c1ccc2c(c1)CC1(C2)Cc2cc3c(cc2C1=O)CCC3` (stereo unspecified): 30.2 µM. Still for that read-out and setting: the result for `CCc1nn(CN2CCOCC2)c(=S)n1/N=C/c1ccc(-c2ccc(Cl)cc2)o1` reads greater than 100 µM; that for `CSc1nc2c(c(=O)[nH]1)N=C(c1ccc([N+](=O)[O-])cc1)CC(c1ccccc1)N2` (stereo unspecified), greater than 100 µM. In turn, `C/C(=N\Nc1ccc([N+](=O)[O-])cc1[N+](=O)[O-])c1sc(-n2nc(-c3ccccc3)cc2-c2ccccc2)nc1C` had a TGI of 84.7 µM. The same measure, in the same setting: the same measure for `COc1cc(C2SCC(=O)N2c2cccc(Cl)c2)cc(OC)c1OC` (stereo unspecified): greater than 100 µM. For `CS(=O)(=O)OCC1CN(S(C)(=O)=O)c2cc(O)ccc21` (stereo unspecified), the TGI is 7.72 µM. Still for that read-out and setting: the same measure for `COC1/C=C/C(C)C(C(C)C(OC)C(C)CCC(=O)C(C)C(C/C=C/N(C)C=O)OC)OC(=O)C=CC2OC2(C)CC(OC)C(OC)C2=CC(=O)O[C@@H](C(C)C(OC)CC(OC)/C=C/C(C)C(O)C1)[C@H]2O` (stereo partly specified): 0.0492 µM.

Consider `O=c1[nH]cc(-c2c[nH]c3ccccc23)nc1-c1c[nH]c2ccccc12`, for which the TGI stood at 26.9 µM. The same measure, in the same setting: the same measure for `Nc1n[n+](CC(=O)c2ccccc2)c2sc(-c3ccccc3)nn12`: greater than 100 µM; for `CCC(C=O)P1(=O)OC(C)(C)CN1C(C)(C)C` (stereo unspecified): greater than 100 µM. Still for that read-out and setting: the same measure for `CC1CC(C)C(C#N)N(C)c2ccccc21` (stereo unspecified): greater than 100 µM; for `O=C(O)C12C3CCC(CC3)C1(C(=O)O)C1CCC2C1` (stereo unspecified): greater than 100 µM. Same read-out and setting: the result for `O=C(NNCC(O)COc1ccccc1)c1ccccc1` (stereo unspecified) reads greater than 100 µM. `COC(=O)[C@@H]1CC(C(C[N+](=O)[O-])c2ccc(O[Si](C)(C)C(C)(C)C)cc2)C(=O)N1C(=O)OC(C)(C)C` (stereo partly specified) showed a TGI greater than 100 µM.

`O=S1(=O)OCCOS(=O)(=O)C1(F)Br` registered a TGI greater than 100 µM. Still for that read-out and setting: the result for `COC(=O)[C@H](CCSC)NC(=O)N[C@H](C)c1ccccc1` reads greater than 100 µM. Same read-out and setting: the result for `C=CC[C@@H](N)C(=O)N(C)[C@@H](C)[C@@H](O)c1ccccc1` reads greater than 100 µM; that for `N#Cc1sc2c(c1OC(=O)c1ccccc1)c(=O)n(-c1ccccc1)c(=S)n2-c1ccccc1`, greater than 100 µM; that for `Cc1cc(C)c(-n2[nH]c(=O)n(C)c2=O)c(C)c1`, greater than 100 µM. The molecule `O=C(NC1=C(Cl)C(=O)c2ccccc2C1=O)c1ccc(F)cc1` showed a TGI of 7.43 µM. Still for that read-out and setting: the same measure for `CC1=NC(=Cc2cccc(Cl)c2)C(=O)N1n1c(-c2ccccc2)nc2ccccc2c1=O`: 70.3 µM; for `CO/C(=N\N=C\c1ccc(OC)c(OC)c1)c1ccncc1`: greater than 10 µM.
